pIC50: −log10 of the molar value.
Columns and labels:
[1] = test system: total Aβ in HEK293 cells overexpressing APP with Swedish and London mutations; assay: Secretase reaction and Aβ analysis in whole cells, total Aβ (ECL sandwich immunoassay); format: cell-based; conditions: Homo sapiens, 5 hour at 37° C.
Experimental: (§1) Secretase Reaction and Aβ Analysis in Whole Cells: HEK293 cells overexpressing APP with Swedish and London mutations were treated with the specified compounds for 5 hour at 37° C. in […] of DMEM medium containing 10% fetal bovine serum. At the end of the incubation, total Aβ, Aβ40 and Aβ42 were measured using electrochemiluminescence (ECL) based sandwich immunoassays. Total Aβ was determined using a pair of antibodies TAG-WO2 and biotin-4G8, Aβ40 was identified with antibody pairs TAG-G2-10 and biotin-4G8, while Aβ42 was identified with TAG-G2-11 and biotin-4G8. The ECL signal was measured using Sector Imager 2400 (Meso Scale Discovery).

[2] = test system: Aβ42 in HEK293 cells overexpressing APP with Swedish and London mutations; assay: Secretase reaction and Aβ analysis in whole cells, Aβ42 (ECL sandwich immunoassay); format: cell-based; conditions: Homo sapiens, 5 hour at 37° C.
Experimental: as §1

SMILES | pIC50 [1] | pIC50 [2]
COc1cc(/C=C2\N/C(=N\CC3CC3)N(Cc3ccc(F)cc3)C2=O)ccc1-n1cnc(C)c1 [Example B6] | 4.70 to 6.11 | 7.03 to 7.34
COc1cc(/C=C2\NC(=N)N(C(C)c3cc(F)c(F)c(F)c3)C2=O)ccc1-n1cnc(C)c1 (centres unmarked) [Example B7] | 4.70 to 6.11 | 7.03 to 7.34
COc1cc(/C=C2\N/C(=N\CCO)N(Cc3ccc(F)cc3)C2=O)ccc1-n1cnc(C)c1 [Example B4] | 4.70 to 6.11 | 7.03 to 7.34
COc1cc(/C=C2\N/C(=N\CC(F)(F)F)N([C@H](C)c3ccc(F)cc3)C2=O)ccc1-n1cnc(C)c1 [Example B18] | 4.70 to 6.11 | 7.03 to 7.34
CC/N=C1\N/C(=C\c2ccc(-n3cnc(C)c3)c(OC)c2)C(=O)N1[C@H](C)c1ccc(F)cc1 [Example A9m] | 4.70 to 6.11 | 7.03 to 7.34
CC/N=C1\N/C(=C\c2ccc(-n3cnc(C)c3)c(OC)c2)C(=O)N1C(C)c1cc(F)c(F)c(F)c1 (centres unmarked) [Example B8] | 4.70 to 6.11 | 7.03 to 7.34
CCCC/N=C1\N/C(=C\c2ccc(-n3cnc(C)c3)c(OC)c2)C(=O)N1Cc1ccc(F)cc1 [Example B5] | 4.70 to 6.11 | 7.03 to 7.34
COc1cc(/C=C2\N/C(=N\CC(F)(F)F)N(Cc3cc(F)c(F)c(F)c3)C2=O)ccc1-n1cnc(C)c1 [Example B23] | 4.70 to 6.11 | 7.03 to 7.34
COc1cc(/C=C2\N/C(=N\CC3CC3)N(Cc3cc(F)c(F)c(F)c3)C2=O)ccc1-n1cnc(C)c1 [Example A9r] | 4.70 to 6.11 | 7.03 to 7.34
CC/N=C1\N/C(=C\c2ccc(-n3cnc(C)c3)c(OC)c2)C(=O)N1Cc1cc(F)c(F)c(F)c1 [Example A9t] | 4.70 to 6.11 | 7.03 to 7.34
CC/N=C1\N/C(=C\c2ccc(-n3cnc(C)c3)c(OC)c2)C(=O)N1Cc1ccc(F)cc1 [Example B2] | 4.70 to 6.11 | 7.03 to 7.34
CCCC/N=C1\N/C(=C\c2ccc(-n3cnc(C)c3)c(OC)c2)C(=O)N1Cc1cc(F)c(F)c(F)c1 [Example B22] | 4.70 to 6.11 | 7.03 to 7.34
COc1cc(/C=C2\N/C(=N\CC3CC3)N(C(C)c3cc(F)c(F)c(F)c3)C2=O)ccc1-n1cnc(C)c1 (centres unmarked) [Example B12] | 4.70 to 6.11 | 7.03 to 7.34
CCCC/N=C1\N/C(=C\c2ccc(-n3cnc(C)c3)c(OC)c2)C(=O)N1[C@H](C)c1ccc(F)cc1 [Example B14] | 4.70 to 6.11 | 7.03 to 7.34
COc1cc(/C=C2\N/C(=N\CCO)N(C(C)c3cc(F)c(F)c(F)c3)C2=O)ccc1-n1cnc(C)c1 (centres unmarked) [Example B10] | 4.70 to 6.11 | 7.03 to 7.34
COc1cc(/C=C2\N/C(=N\CCO)N([C@H](C)c3ccc(F)cc3)C2=O)ccc1-n1cnc(C)c1 [Example B15] | 4.70 to 6.11 | 7.03 to 7.34
COc1cc(/C=C2\N/C(=N\CCO)N(Cc3cc(F)c(F)c(F)c3)C2=O)ccc1-n1cnc(C)c1 [Example A9u] | 4.70 to 6.11 | 7.03 to 7.34
CCCC/N=C1\N/C(=C\c2ccc(-n3cnc(C)c3)c(OC)c2)C(=O)N1C(C)c1cc(F)c(F)c(F)c1 (centres unmarked) [Example B11] | 4.70 to 6.11 | 7.03 to 7.34
COc1cc(/C=C2\NC(=N)N([C@H](C)c3ccc(F)cc3)C2=O)ccc1-n1cnc(C)c1 [Example B13] | 4.70 to 6.11 | 7.03 to 7.34

Source: patent US20100298381A1, “GAMMA SECRETASE MODULATORS” (Schering Corporation, priority 2007, published 2010)
